pIC50: −log10 of the molar value. Where two headings read alike, the source gives them in different places.

Consider 12 compounds from patent US12448394B2, “Heterocyclic pyrazole derivatives as type III receptor tyrosine kinase inhibitors” (DEVELOPMENT CENTER FOR BIOTECHNOLOGY, priority 2019, dated 2025).

The target of one assay is T1, FLT3-D835Y mutant kinase (Homo sapiens, UniProt P36888, D835Y).
T1 construct: purchased SignalChem
T1 sequence (P36888 27-993 D835Y): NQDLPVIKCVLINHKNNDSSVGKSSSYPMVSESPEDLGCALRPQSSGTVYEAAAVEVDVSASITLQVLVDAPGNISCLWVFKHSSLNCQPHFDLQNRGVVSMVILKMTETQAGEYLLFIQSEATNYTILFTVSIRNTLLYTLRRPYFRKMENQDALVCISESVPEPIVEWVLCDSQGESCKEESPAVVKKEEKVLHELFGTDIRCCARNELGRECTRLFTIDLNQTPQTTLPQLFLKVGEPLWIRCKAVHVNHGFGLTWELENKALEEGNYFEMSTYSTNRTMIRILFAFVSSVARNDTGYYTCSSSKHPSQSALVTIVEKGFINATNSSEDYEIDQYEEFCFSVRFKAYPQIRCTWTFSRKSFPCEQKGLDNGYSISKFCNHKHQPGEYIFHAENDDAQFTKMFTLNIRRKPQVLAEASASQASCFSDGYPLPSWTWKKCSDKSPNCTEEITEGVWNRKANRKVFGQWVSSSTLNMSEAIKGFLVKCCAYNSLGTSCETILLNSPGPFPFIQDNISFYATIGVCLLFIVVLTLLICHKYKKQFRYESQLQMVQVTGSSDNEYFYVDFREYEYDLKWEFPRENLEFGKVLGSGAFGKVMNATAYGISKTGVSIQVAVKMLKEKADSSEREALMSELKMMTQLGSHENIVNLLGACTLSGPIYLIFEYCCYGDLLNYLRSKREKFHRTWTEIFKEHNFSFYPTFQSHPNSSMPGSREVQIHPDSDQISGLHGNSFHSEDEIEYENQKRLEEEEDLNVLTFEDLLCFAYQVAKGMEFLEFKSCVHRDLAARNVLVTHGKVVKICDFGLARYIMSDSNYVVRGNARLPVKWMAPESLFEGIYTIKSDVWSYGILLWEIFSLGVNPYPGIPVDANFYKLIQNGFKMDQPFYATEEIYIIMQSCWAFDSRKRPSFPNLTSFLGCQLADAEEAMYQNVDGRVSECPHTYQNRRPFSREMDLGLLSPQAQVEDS
Kind of assay: FLT3-D835Y mutant kinase assay (AlphaScreen). The assay is classed as biochemical. Particulars: read-out: Ranking of IC50 values, FLT3-D835Y. As for the experimental part:
Inhibition of FLT3-D835Y mutant kinase activity by a test compound disclosed herein was estimated by AlphaScreen (PerkinElmer). Standard assay conditions were 1 ng of recombinant FLT3-D835Y mutant kinase (SignalChem) with 6 ng Biotin-conjugated Poly-(Glu 4: Tyr 1) (Cisbio) in the assay buffer (10 μM ATP, 10 mM MOPs, pH7.0, 0.21 mM EDTA, 0.5% glycerol, 1 mg/mL BSA, 0.01% 2-mercaptoethanol, 0.001% Brij35, 10 mM MgCl2) in a final volume of 25 μL. Reactions were incubated at 30° C. for 30 min and stopped by adding 5 μL of 50 mM EDTA. Analysis of resulting product using an AlphaScreen kit and counted with Enspire Alpha (PerkinElmer). […] The IC50 values of inhibitors were determined after carrying out assays with each compound at serially diluted concentrations in duplication. The results were analyzed using linear regression software (GraphPad Prism 5; GraphPad Software Inc.)

The target of another assay is T2, PDGFRα kinase (Homo sapiens, UniProt P16234).
T2 construct: purchased SignalChem
Briefly: PDGFRα kinase assay (AlphaScreen). In kind it is biochemical. Particulars: read-out: Ranking of IC50 values, PDGFRα. As for the experimental part:
Inhibition of PDGFRα kinase activity by a test compound disclosed herein was estimated by AlphaScreen (PerkinElmer). Standard assay conditions were 1.5 ng of recombinant PDGFRα kinase (SignalChem) with 6 ng Biotin-conjugated Poly-(Glu 4: Tyr 1) (Cisbio) in the assay buffer (10 μM ATP, 10 mM MOPs, pH 7.0, 0.21 mM EDTA, 0.5% glycerol, 1 mg/mL BSA, 0.01% 2-mercaptoethanol, 0.001% Brij35, 10 mM MgCl2) in a final volume of 25 μL. Reactions were incubated at 30° C. for 30 min and stopped by adding […] of 50 mM EDTA. Analysis of resulting product using an AlphaScreen kit and counted with Enspire Alpha (PerkinElmer). […] The IC50 values of inhibitors were determined after carrying out assays with each compound at serially diluted concentrations in duplication. The results were analyzed using linear regression software (GraphPad Prism 5; GraphPad Software Inc.)
On the technique in general: Bead proximity is the source of the signal in Alpha formats.

Assay [1] concerns A375 melanoma cell with BRAF V600E mutation. Briefly: A375 cell proliferation assay (counter screen). The assay is classed as cell-based, human. Particulars: 72 hours treatment, CellTiter96, read-out: anti-proliferation activity A375 BRAF V600E, IC50 ranking. On the procedure:
(§1) Inhibitions of cell growths by compounds were measured using CellTiter™-96 assay. The cytotoxicities of compounds of the invention were evaluated in cell line panels with different signaling pathway dependencies, including MV4-11 human acute myeloid leukemia cell with FLT3-ITD mutation, Molm-14 human acute myeloid leukemia cell with FLT3-ITD mutation, THP-1 human acute monocytic leukemia cell with NRAS G12D mutation, A375 melanoma cell with BRAF V600E mutation, and HCC827 NSCLC cell with EGFR exon 19 deletion mutation.
A375 cells are melanoma cells encoding BRFA V600E mutation, which renders the cell growth dependent on BRAF signaling instead of class III RTKs signaling. A375 cells (catalog #CRL-1619) were obtained from the ATCC. Briefly, cells were cultured in DMEM containing 10% FBS and incubated at 37° C. in 5% CO2 atmosphere. Cells were allowed to expand until reaching saturation, at which point they were sub-cultured or harvested for assay use.
(§2) MV4-11, Molm-14, THP-1, A375, and HCC827 cells were seeded into 96-well plates at 6500, 25000, 5000, 2000 and 8000 cells/well, respectively, and incubated at 37° C., 5% CO2 overnight. Then, these seeded cells were treated with increasing concentrations of the test compounds and incubated for another 72 hours. At the end of the incubation, CellTiter96® AQueous One Solution Reagent (Promega, […]) was added and incubated for the additional 2˜4 hours. Cell viability was determined by measuring absorbance at 490 nm using EMax® microplate reader (Molecular Devices, San Jose, CA, USA).
A general note: A counterscreen serves to expose hits that act by an unwanted route or on another target.

Assay [2] relates to HCC827 NSCLC cell with EGFR exon 19 deletion mutation. Kind of assay: HCC827 cell proliferation assay (counter screen). In kind it is cell-based, human. Particulars: HCC827 cells, 72 hours treatment, CellTiter96, read-out: anti-proliferation activity HCC827 EGFR Exon19 del, IC50 ranking. As for the experimental part: as §1
HCC827 cells are non-small cell lung carcinoma (NSCLC) cells encoding EGFR exon 19 deletion mutation, which renders the cell growth dependent on EGFR signaling instead of class III RTKs signaling. HCC827 cells (catalog #CRL-2868) were obtained from the ATCC. Briefly, cells were cultured in RPMI1640 medium supplemented with 10% FBS and incubated at 37° C. in 5% CO2 atmosphere. Cells were allowed to expand until reaching saturation, at which point they were sub-cultured or harvested for assay use.
as §2

The mark [3] stands for this setting: Homo sapiens, A-375, A375 cells.

T2 sequence (P16234 24-1089): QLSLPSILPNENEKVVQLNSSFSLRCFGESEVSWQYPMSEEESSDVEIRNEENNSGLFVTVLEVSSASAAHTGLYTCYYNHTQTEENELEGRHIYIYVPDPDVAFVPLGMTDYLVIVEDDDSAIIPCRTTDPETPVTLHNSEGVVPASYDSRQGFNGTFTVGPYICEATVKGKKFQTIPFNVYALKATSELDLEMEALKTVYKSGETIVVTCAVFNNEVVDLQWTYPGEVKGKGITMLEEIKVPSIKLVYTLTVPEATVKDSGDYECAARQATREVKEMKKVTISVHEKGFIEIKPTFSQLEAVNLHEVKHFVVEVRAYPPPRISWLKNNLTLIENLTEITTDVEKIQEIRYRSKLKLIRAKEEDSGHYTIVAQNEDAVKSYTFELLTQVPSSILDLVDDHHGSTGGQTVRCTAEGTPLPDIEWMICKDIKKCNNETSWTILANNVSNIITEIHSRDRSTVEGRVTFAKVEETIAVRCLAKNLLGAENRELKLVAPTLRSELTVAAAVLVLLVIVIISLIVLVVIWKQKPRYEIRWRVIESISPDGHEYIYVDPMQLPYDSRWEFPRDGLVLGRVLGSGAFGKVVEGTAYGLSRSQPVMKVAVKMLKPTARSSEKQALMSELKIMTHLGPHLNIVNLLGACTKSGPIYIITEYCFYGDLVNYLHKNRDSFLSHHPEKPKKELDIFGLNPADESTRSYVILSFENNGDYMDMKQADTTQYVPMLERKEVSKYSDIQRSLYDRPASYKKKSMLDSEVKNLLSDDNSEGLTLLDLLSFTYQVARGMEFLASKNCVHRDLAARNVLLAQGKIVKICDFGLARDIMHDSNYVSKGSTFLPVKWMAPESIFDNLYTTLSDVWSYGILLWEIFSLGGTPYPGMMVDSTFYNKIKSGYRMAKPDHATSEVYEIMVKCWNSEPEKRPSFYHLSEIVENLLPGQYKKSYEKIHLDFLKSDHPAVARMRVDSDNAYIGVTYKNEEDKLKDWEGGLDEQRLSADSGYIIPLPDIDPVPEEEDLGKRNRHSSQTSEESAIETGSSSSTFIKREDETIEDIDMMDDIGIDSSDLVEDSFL

As for `Cn1ncc2ccc(-c3n[nH]c4c3Cc3sc(-c5cnc(N)nc5)cc3-4)cc21` [Compound 45, 5-(3-(1-methyl-1H-indazol-6-yl)-1,4-dihydrothieno [2′,3′:4,5]cyclopenta[l,2-c]pyrazol-6-yl)pyrimidin-2-amine], the pIC50 was above 9.00 on FLT3-D835Y mutant kinase, 7.52 to 8.00 at PDGFRα kinase, below 5.00 in assay [1] (setting [3]) and below 5.00 in assay [2] (Homo sapiens).

In the case of `Cn1ncc2ccc(-c3n[nH]c4c3Cc3sc(N5CCOCC5)cc3-4)cc21` [Compound 78, 4-(3-(1-methyl-1H-indazol-6-yl)-1,4-dihydro-thieno[2′,3′:4,5]cyclopenta [1,2-c]pyrazol-6-yl) morpholine], the pIC50 was above 9.00 at FLT3-D835Y mutant kinase, 8.00 to 9.00 on PDGFRα kinase, 5.00 to 6.00 in assay [1] (setting [3]) and below 5.00 in assay [2] (Homo sapiens).

As to `Cn1ncc2ccc(-c3n[nH]c4c3Cc3sc(-c5ccc(CN6CCNC(=O)C6)cc5)cc3-4)cc21` [Compound 63, 4-(4-(3-(1-methyl-1H-indazol-6-yl)-1,4-dihydro-thieno[2′,3′:4,5]cyclopenta [1,2-c]pyrazol-6-yl)benzyl)piperazin-2-one], the pIC50 at FLT3-D835Y mutant kinase was 8.00 to 9.00; on PDGFRα kinase, 8.00 to 9.00; in assay [1] (setting [3]) it was below 5.00; in assay [2] (Homo sapiens) it was below 5.00.

`Cc1cc(-c2cc3c(s2)Cc2c(-c4ccc5cnn(C)c5c4)n[nH]c2-3)ccn1` [Compound 17, 3-(1-methyl-1H-indazol-6-yl)-6-(2-methylpyridin-4-yl)-1,4-dihydrothieno [2′,3′:4,5]cyclopenta[1,2-c] pyrazole]: the pIC50 on FLT3-D835Y mutant kinase is 8.00 to 9.00; on PDGFRα kinase, 7.52 to 8.00; in assay [1] (setting [3]) it was below 5.00; in assay [2] (Homo sapiens) it was below 5.00.

Consider `COc1cc(-c2cc3c(s2)Cc2c(-c4ccc5cnn(C)c5c4)n[nH]c2-3)ccc1CN1CCOCC1` [Compound 24, 4-(2-methoxy-4-(3-(1-methyl-1H-indazol-6-yl)-1,4-dihydrothieno[2′,3′:4,5]cyclopenta[1,2-c]pyrazol-6-yl)benzyl)morpholine], for which the pIC50 at FLT3-D835Y mutant kinase is above 9.00; on PDGFRα kinase it was 8.00 to 9.00; in assay [1] (setting [3]), below 5.00; in assay [2] (Homo sapiens), below 5.00.

On to `c1cc(-c2cc3c(s2)Cc2c(-c4ccc5cn[nH]c5c4)n[nH]c2-3)ccc1CN1CCOCC1` [Compound 6, 4-(4-(3-(1H-indazol-6-yl)-1,4-dihydrothieno[2′,3′:4,5]cyclopenta[1,2-c]pyrazol-6-yl)benzyl)morpholine], for which the pIC50 on FLT3-D835Y mutant kinase is above 9.00; at PDGFRα kinase, 8.00 to 9.00; in assay [1] (setting [3]), below 5.00; in assay [2] (Homo sapiens), below 5.00.

As to `C[C@@H]1CN(Cc2ccc(-c3cc4c(s3)Cc3c(-c5ccc6cn[nH]c6c5)n[nH]c3-4)cn2)C[C@H](C)O1` [Compound 16, (2R,6S)-4-((5-(3-(1H-indazol-6-yl)-1,4-dihydro-thieno[2′,3′:4,5]cyclopenta [1,2-c]pyrazol-6-yl)pyridin-2-yl)methyl)-2,6-dimethylmorpholine], the pIC50 at FLT3-D835Y mutant kinase is above 9.00; at PDGFRα kinase, 8.00 to 9.00; in assay [1] (setting [3]) it was below 5.00; in assay [2] (Homo sapiens), below 5.00.

For `Cc1ccc(-c2cc3c(s2)Cc2c(-c4ccc5cnn(C)c5c4)n[nH]c2-3)cn1` [Compound 33, 3-(1-methyl-1H-indazol-6-yl)-6-(6-methylpyridin-3-yl)-1,4-dihydrothieno [2′,3′:4,5]cyclopenta [1,2-c]pyrazole], the pIC50 on FLT3-D835Y mutant kinase was above 9.00; on PDGFRα kinase, 8.00 to 9.00; in assay [1] (A375 cells), below 5.00; in assay [2], below 5.00.

Consider `Cn1ncc2ccc(-c3n[nH]c4c3Cc3sc(-c5csc(C(=O)N6CCOCC6)c5)cc3-4)cc21` [Compound 48, (4-(3-(1-methyl-1H-indazol-6-yl)-1,4-dihydro-thieno[2′,3′:4,5]cyclopenta [1,2-c]pyrazol-6-yl)thiophen-2-yl) (morpholino)methanone], for which the pIC50 is above 9.00 on FLT3-D835Y mutant kinase, 8.00 to 9.00 at PDGFRα kinase, below 5.00 in assay [1] (setting [3]) and below 5.00 in assay [2] (Homo sapiens).

For the compound `Cn1ncc2ccc(-c3n[nH]c4c3Cc3sc(-c5ccc(CN6CCOCC6)nc5)cc3-4)cc21` [Compound 10, 4-((5-(3-(1-methyl-1H-indazol-6-yl)-1,4-dihydro-thieno[2′,3′:4,5]cyclopenta [1,2-c]pyrazol-6-yl)pyridin-2-yl)methyl)morpholine], the pIC50 at FLT3-D835Y mutant kinase was above 9.00; on PDGFRα kinase it was 8.00 to 9.00; in assay [1] (setting [3]), below 5.00; in assay [2] (Homo sapiens), below 5.00.

For `Cn1ncc2ccc(-c3n[nH]c4c3Cc3sc(-c5cccc(CN6CCOCC6)c5)cc3-4)cc21` [Compound 13, 4-(3-(3-(1-methyl-1H-indazol-6-yl)-1,4-dihydro-thieno[2′,3′:4,5]cyclopenta [1,2-c]pyrazol-6-yl)benzyl) morpholine], the pIC50 on FLT3-D835Y mutant kinase was 8.00 to 9.00; on PDGFRα kinase, 7.52 to 8.00; in assay [1] (setting [3]), below 5.00; in assay [2] (Homo sapiens), below 5.00.

As for `Cn1ncc2ccc(-c3n[nH]c4c3Cc3sc(-c5ccc(CN6CCOCC6)cn5)cc3-4)cc21` [Compound 95, 4-((6-(3-(1-methyl-1H-indazol-6-yl)-1,4-dihydro-thieno[2′,3′:4,5]cyclopenta [1,2-c]pyrazol-6-yl)pyridin-3-yl)methyl) morpholine], the pIC50 was above 9.00 at FLT3-D835Y mutant kinase and 8.00 to 9.00 at PDGFRα kinase.
